Experimental data reported in US4975538A, “Antibiotic sulfonylaminocarbonyl activated beta-lactams” (The Upjohn Company, priority 1989, dated 1990).
Values after ≈ are worked out from the molar mass of the structure shown.

Tests used:
Assay in all cases: Minimum Inhibitory Concentration (MIC), agar dilution in Mueller Hinton Agar
Type in all cases: cell-based
Citrobacter Freundli = settings: 20 h, culture number 3507
Description: (§1) The compounds of this invention and their respective pharmaceutically acceptable salts have antibiotic activity against a variety of gram-negative bacteria including Escherichia coli, Klebsiella pneumoniae, and Pseudomonas aeruginosa. The compounds are useful for treating bacterial infections in animals, including and most preferably humans. Compounds of the invention are tested for in vitro antimicrobial activity using standard testing procedures such as the determination of minimum inhibitory concentration (MIC) by methods described in "Methods for Dilution Antimicrobial Susceptibility Tests for Bacteria That Grow Aerobically" (M7-A) Published December 1985 by the National Committee for Clinical Laboratory Standards, 771 East Lancaster Avenue, Villanova, Pa. 19084. Briefly, MIC values are determined in unsupplemented Mueller Hinton Agar (MHA). The compounds tested are diluted serially into molten MHA at 47° C. The agar is poured into petri dishes and allowed to harden. The various bacteria used for testing are grown overnight on MHA at 35° C. and transferred to Tryptiease Soy Broth (TSB) until a turbidity of 0.5 McFarland standard is obtained. The bacteria are diluted one to twenty in TSB and inoculated on the plates (1 μl using a Steers replicator).

Enterobacter Cloacae = settings: 20 h
Description: as §1

Escherichia Coli = settings: 20 h
Description: as §1

Klebsiella Oxytoca = settings: 20 h
Description: as §1

Klebsiella Pneumoniae = settings: 20 h, culture number 58
Description: as §1

Proteus Vulgaris = settings: 20 h, culture number 9679
Description: as §1

Pseudomonas Aeruginosa = settings: 20 h
Description: as §1

Serratia Marcescens = settings: 20 h
Description: as §1

Staphylococcus Aureus = settings: 20 h
Description: as §1

Streptococcus Faecalis = settings: Enterococcus faecalis, 20 h; culture number 694
Description: as §1

Streptococcus Pneumoniae = settings: 20 h, culture number 41
Description: as §1

Streptococcus Pyogenes = settings: 20 h, culture number 152
Description: as §1

SMILES	MIC (Citrobacter Freundli) [µg/mL]	MIC (Enterobacter Cloacae; culture number 9381) [µg/mL]	MIC (Enterobacter Cloacae; culture number 9382) [µg/mL]	MIC (Escherichia Coli; culture number 9379) [µg/mL]	MIC (Escherichia Coli; culture number 9380) [µg/mL]	MIC (Escherichia Coli; culture number 9451) [µg/mL]	MIC (Klebsiella Oxytoca; culture number 9383) [µg/mL]	MIC (Klebsiella Oxytoca; culture number 9384) [µg/mL]	MIC (Klebsiella Pneumoniae) [µg/mL]	MIC (Proteus Vulgaris) [µg/mL]	MIC (Pseudomonas Aeruginosa; culture number 231) [µg/mL]	MIC (Pseudomonas Aeruginosa; culture number 9191) [µg/mL]	MIC (Serratia Marcescens; culture number 6888) [µg/mL]	MIC (Staphylococcus Aureus; culture number 3665) [µg/mL]	MIC (Staphylococcus Aureus; culture number 6685) [µg/mL]	MIC (Staphylococcus Aureus; culture number 9218) [µg/mL]	MIC (Streptococcus Faecalis) [µg/mL]	MIC (Streptococcus Pneumoniae) [µg/mL]	MIC (Streptococcus Pyogenes) [µg/mL]	MIC (Serratia Marcescens; culture number 9888) [µg/mL]
CC(C)(O/N=C(\C(=O)N[C@H]1CN(C(=O)NS(=O)(=O)N2CCN(C(=O)c3cc(=O)c(O)c[nH]3)CC2=O)C1=O)c1csc(N)n1)C(=O)O [Compound E17]	0.25 (≈ 0.366 µM)	64 (≈ 93.6 µM)	1 (≈ 1.46 µM)	0.015 (≈ 0.0219 µM)	< 0.008	0.015 (≈ 0.0219 µM)	0.5 (≈ 0.731 µM)	0.125 (≈ 0.183 µM)	1 (≈ 1.46 µM)	0.25 (≈ 0.366 µM)	0.5 (≈ 0.731 µM)	0.5 (≈ 0.731 µM)	0.125 (≈ 0.183 µM)	> 64	> 64	> 64	> 64	> 64	16 (≈ 23.4 µM)	–
CC(C)(O/N=C(\C(=O)N[C@H]1CN(C(=O)NS(=O)(=O)N2CCN(C(=O)c3cc(=O)c(O)c[nH]3)NC2=O)C1=O)c1csc(N)n1)C(=O)O [Compound E18, Propanoic acid, 2-[[[1-(2-amino-4-thiazolyl)-2-[[1-[[[[1-[(1,4-dihydro-5-hydroxy-4-oxo-2-pyridinyl)carbonyl]tetrahydro-3-oxo-1,2,4-triazin-4(1H)-yl]sulfonyl]amino]carbonyl]-2-oxo-3-azetidinyl]amino]-2-oxoethylidene]amino]oxy]-2-methyl-[S-(Z)]-]	0.06 (≈ 0.0876 µM)	16 (≈ 23.4 µM)	1 (≈ 1.46 µM)	< 0.008	< 0.008	< 0.008	0.125 (≈ 0.183 µM)	0.03 (≈ 0.0438 µM)	0.5 (≈ 0.73 µM)	0.06 (≈ 0.0876 µM)	0.25 (≈ 0.365 µM)	0.125 (≈ 0.183 µM)	0.06 (≈ 0.0876 µM)	> 64	> 64	> 64	> 64	> 64	16 (≈ 23.4 µM)	–
Nc1nc(/C(=N/OCC(=O)O)C(=O)N[C@H]2CN(C(=O)NS(=O)(=O)N3CCN(C(=O)c4cc(=O)c(O)c[nH]4)CC3)C2=O)cs1 [Compound E19, Acetic acid, 2-[[[1-(2-amino-4-thiazolyl)-2-[[1-[[[[4-[(1,4-dihydro-5-hydroxy-4-oxo-2-pyridinyl)carbonyl]-1-piperazinyl]sulfonyl]amino]carbonyl]-2-oxo-3-azetidinyl]amino]-2-oxoethylidene]amino]oxy]-, [S-(Z)]-]	2 (≈ 3.12 µM)	128 (≈ 200 µM)	16 (≈ 24.9 µM)	0.25 (≈ 0.39 µM)	0.06 (≈ 0.0935 µM)	0.125 (≈ 0.195 µM)	64 (≈ 99.8 µM)	0.5 (≈ 0.779 µM)	8 (≈ 12.5 µM)	4 (≈ 6.23 µM)	8 (≈ 12.5 µM)	8 (≈ 12.5 µM)	1 (≈ 1.56 µM)	> 128	> 128	> 128	> 128	> 128	64 (≈ 99.8 µM)	–
CC(C)(O/N=C(\C(=O)N[C@H]1CN(C(=O)NS(=O)(=O)N2CCN(NC(=O)c3cc(=O)c(O)cn3C3CC3)C2=O)C1=O)c1csc(N)n1)C(=O)O [Compound E42, Propanoic acid, 2-[[[1-(2-amino-4-thiazolyl)-2-[[1-[[[[3-[[(1-cyclopropyl-1,4-dihydro-5-hydroxy-4-oxo-2-pyridinyl)carbonyl]amino]-2-oxo-1-imidazolidinyl]sulfonyl]amino]carbonyl]-2-oxo-3-azetidinyl]amino]-2-oxoethylidene]amino]oxy]-2-methyl-, [S-(Z)]-]	0.5 (≈ 0.69 µM)	64 (≈ 88.3 µM)	4 (≈ 5.52 µM)	0.06 (≈ 0.0828 µM)	0.03 (≈ 0.0414 µM)	0.125 (≈ 0.172 µM)	1 (≈ 1.38 µM)	0.5 (≈ 0.69 µM)	2 (≈ 2.76 µM)	2 (≈ 2.76 µM)	16 (≈ 22.1 µM)	16 (≈ 22.1 µM)	0.5 (≈ 0.69 µM)	> 64	> 64	> 64	> 64	> 64	64 (≈ 88.3 µM)	–
CC(C)(O/N=C(\C(=O)N[C@H]1CN(C(=O)NS(=O)(=O)n2nc(-c3cc(=O)c(O)c[nH]3)[nH]c2=O)C1=O)c1csc(N)n1)C(=O)O [E23 (a), propanoic acid, 2-[[[1-(2-amino-4-thiazolyl)-2-[[1-[[[[3-(1,4-dihydro-5-hydroxy-4-oxo-2-pyridinyl)-2,5-dihydro-5-oxo-1H-1,2,4-triazol-1-yl]sulfonyl]amino]carbonyl]-2-oxo-3-azetidinyl]amino]-2-oxoethylidene]amino]oxy]-2-methyl-, [S-(Z)]-]	0.03 (≈ 0.0468 µM)	4 (≈ 6.24 µM)	0.5 (≈ 0.781 µM)	< 0.008	< 0.008	< 0.008	0.03 (≈ 0.0468 µM)	0.03 (≈ 0.0468 µM)	0.25 (≈ 0.39 µM)	0.03 (≈ 0.0468 µM)	0.5 (≈ 0.781 µM)	0.5 (≈ 0.781 µM)	0.015 (≈ 0.0234 µM)	> 64	> 64	> 64	> 64	> 64	16 (≈ 25 µM)	–
Cn1c(-c2cc(=O)c(O)c[nH]2)nn(S(=O)(=O)NC(=O)N2C[C@H](NC(=O)/C(=N\OC(C)(C)C(=O)O)c3csc(N)n3)C2=O)c1=O [E23 (b)]	0.03 (≈ 0.0458 µM)	4 (≈ 6.11 µM)	0.5 (≈ 0.764 µM)	< 0.008	< 0.008	< 0.008	0.03 (≈ 0.0458 µM)	0.03 (≈ 0.0458 µM)	0.25 (≈ 0.382 µM)	0.03 (≈ 0.0458 µM)	0.125 (≈ 0.191 µM)	0.25 (≈ 0.382 µM)	0.015 (≈ 0.0229 µM)	> 64	> 64	> 64	> 64	> 64	16 (≈ 24.4 µM)	–
Nc1nc(C(=NOCC(=O)O)C(=O)NC2CN(C(=O)NS(=O)(=O)N3CC(CNC(=O)c4cc(=O)c(O)c[nH]4)OC3=O)C2=O)cs1 (stereo not shown) [E27 (a), [[[1-(2-amino-4-thiazolyl)-2-[[1-[[[[4-[[(1,4-dihydro-5-hydroxy-4-oxo-2-pyridinyl)carbonyl]amino]-[2-oxo-5-oxazolydinyl]methyl]sulfonyl]amino]carbonyl]-2-oxo-3-azetidinyl]amino]-2-oxoethylidene]amino]oxy] acetic acid]	0.25 (≈ 0.372 µM)	128 (≈ 191 µM)	2 (≈ 2.98 µM)	< 0.06	< 0.06	< 0.06	4 (≈ 5.96 µM)	0.25 (≈ 0.372 µM)	0.5 (≈ 0.745 µM)	0.5 (≈ 0.745 µM)	4 (≈ 5.96 µM)	64 (≈ 95.3 µM)	–	–	–	–	–	–	16 (≈ 23.8 µM)	0.5 (≈ 0.745 µM)
CC(C)(ON=C(C(=O)NC1CN(C(=O)NS(=O)(=O)N2CC(CNC(=O)c3cc(=O)c(O)c[nH]3)OC2=O)C1=O)c1csc(N)n1)C(=O)O (stereo not shown) [E27 (b)]	0.5 (≈ 0.715 µM)	128 (≈ 183 µM)	8 (≈ 11.4 µM)	0.125 (≈ 0.179 µM)	0.03 (≈ 0.0429 µM)	0.06 (≈ 0.0858 µM)	4 (≈ 5.72 µM)	0.25 (≈ 0.357 µM)	2 (≈ 2.86 µM)	0.5 (≈ 0.715 µM)	4 (≈ 5.72 µM)	8 (≈ 11.4 µM)	–	–	–	–	–	–	64 (≈ 91.5 µM)	0.5 (≈ 0.715 µM)
